Experimental data: publication PMC11747586, “Synthesis and Investigation of Peptide–Drug Conjugates Comprising Camptothecin and a Human Protein‐Derived Cell‐Penetrating Peptide” (Chemical Biology & Drug Design, 2025)
Values joined by “and” are separate entries in the source; they are usually repeats but may differ in a detail not shown here. Equal entries are not always repeated. Residues, ends and D or L forms follow the SMILES beside them. *: point of attachment. S(CH2)2OCO2(CPT-20-yl) = CC[C@@]1(OC(=O)OCCS*)C(=O)OCc2c1cc1n(c2=O)Cc2cc3ccccc3nc2-1

What was measured:
[1] = Parallel artificial membrane permeability assay (PAMPA); assay type: in vitro ADME; settings: 4 h; for % recovered (soluble fractions) / Papp at 4 h, 4 μM: 4 μM; for % recovered (soluble fractions): combined apical and basolateral fractions; for degradation during PAMPA experiment: cell-free, PBS, 37 °C; for Papp at 4 h, 4 μM: PAMPA, apical to basolateral, read-out: apparent permeability (Papp)
Protocol: FIGURE 4 (A) Membrane permeability and cellular uptake of PDCs, scaffold peptides, and CPT. Compounds were added to PAMPA wells (4 μM) and incubated for 4 h. Supernatant from apical and basolateral sides of the membrane were collected and analyzed using LC–MS. The amount in the combined soluble fractions was compared to the starting amount to determine % recovery, and the apparent permeability (Papp) was calculated as before (Sevin et al. [2013]). Data is expressed as mean ± SD from a single experiment with three technical replicates. (B) Internalization/cell membrane association of PDCs 12–14 and PDIP with HT144 cells. Cells were treated with PDIP or PDCs (4 μM) for 1 h, washed to remove extracellular compound, then extracted with 75% (v/v) MeCN in mQH2O (containing 1.75% (v/v) TFA), to recover soluble peptide or PDC from precipitated cell proteins. The relative amount of internalized peptide or PDC was determined by integrating area under the curve (AUC) for the [M + 6H]^6+ m/z peak (for the intact mass) using time of flight–mass spectrometry (see Figure S2). […] Data is expressed as mean ± SD from a single experiment with three technical replicates for each treatment and control and was analyzed with ANOVA (Tukey multiple comparisons; **p < 0.01, *p < 0.05). (C) Detection of intracellular CPT following 6 h treatment of HT144 cells with CPT and PDCs 12 and 14. […] Data is expressed as mean ± SD from a single experiment with three technical replicates for each treatment and was analyzed with ANOVA (Fisher multiple paired comparisons; **p < 0.01, *p < 0.05). TEXT PRINTED IN THE PICTURE: (A) PDIP: % recovered (soluble fractions): 94 | (A) 12: % recovered (soluble fractions): 58 | (A) 14: % recovered (soluble fractions): 33 | (A) 15: % recovered (soluble fractions): 40 | (A) c[A] PDIP: % recovered (soluble fractions): 34 | (A) CPT: % recovered (soluble fractions): 92 […]
For the first assay, the PDCs (12–15), scaffold peptides and CPT (4 μM) were added to the apical side of PAMPA monolayers and incubated for 4 h. […] PDIP, CPT, and PDCs 12 and 14 had high permeability (Papp ≥ 2 × 10^−6 cm/s), highlighting that these PDCs maintain membrane permeability with the CPT cargo attached. […] Reliable permeability data were not obtained for PDC 13 because of poor recovery of the PDC from soluble fractions, and degradation during the 4 h PAMPA experiment. […] Instability of the carbonate linkage within CPT conjugates containing a dipeptide linker has been previously reported (Walker et al. [2002]), highlighting the potential incompatibility of this drug–linker combination for CPT PDCs. Considering the observed degradation of 13 in the cell‐free assay, it is also possible that extracellular degradation occurred during the cytotoxicity assays.
Parallel artificial membrane permeability assay (PAMPA)
PAMPA was performed according to the manufacturer instructions for the BD Gentest pre-coated PAMPA plate system (BD Biosciences), as previously described.16 Briefly, peptides and PDCs (4 μM in PBS) were added to the apical side of PAMPA wells and incubated for 4 h at 37 °C, 5% CO2 with 95% humidity. Soluble fractions were recovered from the apical and basolateral sides, and compound concentration was quantified using a Shimadzu LCMS-2020 instrument with a Phenomenex 5 µm C18 / 300 Å / 150 x 2 mm LC column. Data was collected from three technical replicates for each compound. The % recovery was determined from (combined from apical and basolateral fractions) relative to the starting concentration:
Recovery rate : R (%) = (C஺ ×V஺ +C஻ ×V஻ )× 100 where CA and CB are the apical and basolateral concentrations (µM), VA and VB are the apical and basolateral volumes (mL), and C0 is the initial concentration (µM).
The apparent permeability coefficient (Papp) was calculated using the following equations17 and where A is the membrane surface area (cm2): […]

human RBCs = assay: Red blood cell (RBC) lysis, released hemoglobin; settings: 72 h
Protocol: (§1) Cell death was measured using resazurin, with 0.1% (v/v) Triton X‐100 as a control for 100% cell death. Data points are expressed as mean ± SD for at least two biological replicates. Dose response curves were fitted using [inhibitor] versus response with variable slope, Graphpad Prism v10. […] RBC lysis was determined by measuring released hemoglobin, with 0.1% (v/v) Triton X‐100 as a control for 100% cell lysis. Melittin was included as a membranolytic control. Data points are expressed as mean ± SD for two technical replicates. Dose response curves were fitted using [inhibitor] versus response with variable slope, Graphpad Prism v10. […] CC50 values are expressed as mean (SEM). […]
(§2) Red blood cell (RBC) lysis
Human RBCs and serum were obtained from healthy volunteers via the Red Cross Lifeblood,
Brisbane, Australia. RBCs were washed three times with PBS and stored in culture medium (RPMI

HT144 (melanoma) cells = assay: cells
Protocol: Cell death was measured using resazurin, with 0.1% (v/v) Triton X‐100 as a control for 100% cell death. Data points are expressed as mean ± SD for at least two biological replicates. Dose response curves were fitted using [inhibitor] versus response with variable slope, Graphpad Prism v10. […] RBC lysis was determined by measuring released hemoglobin, with 0.1% (v/v) Triton X‐100 as a control for 100% cell lysis. Melittin was included as a membranolytic control. Data points are expressed as mean ± SD for two technical replicates. Dose response curves were fitted using [inhibitor] versus response with variable slope, Graphpad Prism v10. […] CC50 values are expressed as mean (SEM).
Cell death was measured using resazurin, with 0.1% (v/v) Triton X-100 as a control for 100% cell death. Data points are expressed as mean ± SD for at least two biological replicates. CC50 values are expressed as mean (SEM). Note: CPT-dipeptide-PDIP was not included in this study. c[A]PDIP is a desulfurized variant of cPDIP 2 (see Table S1) to prevent the presence of free thiol during assays. […]
(§3) HaCaT cells were grown in DMEM medium and HT144 cells were grown in RPMI medium supplemented with 2 mM L-glutamine and 10 mM sodium pyruvate. Media were supplemented with 10% (v/v) fetal bovine serum, 100 units/mL of penicillin and […] of streptomycin. Flasks of cultured cells were maintained in a humidified incubator (37 °C, 5% CO2) and passaged every 2–3 days to maintain cultures between 20–90% confluence. Cell line identity was verified by comparing […]
(§4) STR profiles of the cell lines against database entries from the DSMZ-German collection of microorganisms and cell cultures, GmBH https://celldive.dsmz.de/str/browse.
Toxicity to the HT144 and HaCaT cell lines was tested following peptide treatment by measuring the metabolism of resazurin into fluorescent resorufin. The assays were performed with 5000 cells/well (96-well plate) in serum free media. Cells were incubated with serially diluted peptides, PDCs or […]

[2] = Cytotoxicity (resazurin) against cultured HaCaT noncancerous cells; settings: human
Protocol: as §1, §3, §4
Toxicity to the HT144 and HaCaT cell lines was tested following peptide treatment by measuring the metabolism of resazurin into fluorescent resorufin. The assays were performed with 5000 cells/well (96-well plate) in serum free media. Cells were incubated with serially diluted peptides, PDCs or drugs for 72 h or 24 h (37 °C, 5% CO2). PBS and 0.1% (v/v) Triton X-100 were included as controls for 0% and 100% toxicity. Resazurin was added at 0.02% (w/v) final concentration 2 h prior to the assay end point. Fluorescence (λex = 560 nm, λem = 585 nm) was measured using a Tecan infinite M1000Pro multiplate reader. Percentage cytotoxicity was calculated relative to 0% and 100% controls.
Dose-response curves were fitted and CC50 values were determined using [inhibitor] vs response with four parameters with the top constrained to 100% (GraphPad Prism version 10.0.2). Data was collected as three biological replicates, with experiments conducted on different days.
as §2
Human RBCs and serum were obtained from healthy volunteers via the Red Cross Lifeblood, Brisbane, Australia. RBCs were washed three times with PBS and stored in culture medium (RPMI

## CC[C@H](C)[C@@H]1NC(=O)[C@H](CCCCN)NC(=O)[C@H](CCCCN)NC(=O)[C@H](Cc2ccc(O)cc2)NC(=O)[C@H](CC(C)C)NC(=O)[C@@H]2CCCN2C(=O)CNC(=O)CNC(=O)[C@@H](NC(=O)CN)CSSC[C@@H](C(=O)N[C@@H](CCC(=O)O)C(=O)N[C@@H](CO)C(N)=O)NC(=O)[C@H](CC(C)C)NC(=O)[C@H](CCCCN)NC(=O)[C@H](CCCCN)NC(=O)[C@H]([C@@H](C)CC)NC(=O)[C@H]([C@@H](C)CC)NC(=O)[C@H](CCCCN)NC(=O)[C@H](CCCCN)NC(=O)[C@H](Cc2ccc(O)cc2)NC(=O)[C@H](CC(C)C)NC(=O)[C@@H]2CCCN2C(=O)[C@H](C)NC(=O)CNC(=O)CNC(=O)[C@H](Cn2cc(COCCC(=O)N[C@H](C(=O)N[C@@H](CCCNC(N)=O)C(=O)Nc3ccc(COC(=O)O[C@]4(CC)C(=O)OCc5c4cc4n(c5=O)Cc5cc6ccccc6nc5-4)cc3)C(C)C)nn2)NC(=O)CNC(=O)CNC(=O)[C@H](CO)NC(=O)[C@H](CCC(=O)O)NC(=O)[C@H](CC(C)C)NC(=O)[C@H](CC(C)C)NC(=O)[C@H](CCCCN)NC(=O)[C@H](CCCCN)NC(=O)[C@H]([C@@H](C)CC)NC1=O [PDC 13]
[1]
  % recovered (soluble fractions): poor recovery
  degradation during PAMPA experiment: degradation

## CC[C@H](C)[C@@H]1NC(=O)[C@H](CCCCN)NC(=O)[C@H](CCCCN)NC(=O)[C@H](Cc2ccc(O)cc2)NC(=O)[C@H](CC(C)C)NC(=O)[C@@H]2CCCN2C(=O)[C@H](C)NC(=O)CNC(=O)CNC(=O)[C@H](CSSCCOC(=O)O[C@]2(CC)C(=O)OCc3c2cc2n(c3=O)Cc3cc4ccccc4nc3-2)NC(=O)CNC(=O)CNC(=O)[C@H](CO)NC(=O)[C@H](CCC(=O)O)NC(=O)[C@H](CC(C)C)NC(=O)[C@H](CC(C)C)NC(=O)[C@H](CCCCN)NC(=O)[C@H](CCCCN)NC(=O)[C@H]([C@@H](C)CC)NC(=O)[C@H]([C@@H](C)CC)NC(=O)[C@H](CCCCN)NC(=O)[C@H](CCCCN)NC(=O)[C@H](Cc2ccc(O)cc2)NC(=O)[C@H](CC(C)C)NC(=O)[C@@H]2CCCN2C(=O)[C@H](C)NC(=O)CNC(=O)CNC(=O)[C@H](CO)NC(=O)CNC(=O)CNC(=O)[C@H](CO)NC(=O)[C@H](CCC(=O)O)NC(=O)[C@H](CC(C)C)NC(=O)[C@H](CC(C)C)NC(=O)[C@H](CCCCN)NC(=O)[C@H](CCCCN)NC(=O)[C@H]([C@@H](C)CC)NC1=O [PDC 15] (cyclo(APLYKKIIKKLLESGGC(S(CH2)2OCO2(CPT-20-yl))GGAPLYKKIIKKLLESGGSGG))
[1]
  % recovered (soluble fractions): 40%
  Papp at 4 h, 4 μM: ~0.9 ×10⁻⁶ cm/s
  degradation during PAMPA experiment: Negligible degradation

## CC[C@H](C)[C@H](NC(=O)CN)C(=O)NCC(=O)N[C@@H](C)C(=O)N[C@H](C(=O)N[C@@H](CC(C)C)C(=O)N[C@@H](CCCCN)C(=O)N[C@H](C(=O)N[C@@H](CC(C)C)C(=O)N[C@H](C(=O)N[C@H](C(=O)NCC(=O)N[C@@H](CC(C)C)C(=O)N1CCC[C@H]1C(=O)N[C@@H](C)C(=O)N[C@@H](CC(C)C)C(=O)N[C@H](C(=O)N[C@@H](CO)C(=O)N[C@@H](Cc1c[nH]c2ccccc12)C(=O)N[C@H](C(=O)N[C@@H](CCCCN)C(=O)N[C@@H](CCCNC(=N)N)C(=O)N[C@@H](CCCCN)C(=O)N[C@@H](CCCNC(=N)N)C(=O)N[C@@H](CCC(N)=O)C(=O)N[C@@H](CCC(N)=O)C(N)=O)[C@@H](C)CC)[C@@H](C)CC)[C@@H](C)O)[C@@H](C)O)C(C)C)C(C)C [Melittin]
Human RBCs; human RBCs 0.25% v/v
  HC10 (minimal hemolytic concentration) RBC: 1.8 µM
Human RBCs; human RBCs
  concentration that completely lysed the RBCs: 8 µM

## CC[C@@]1(O)C(=O)OCc2c1cc1n(c2=O)Cc2cc3ccccc3nc2-1 [CPT, Camptothecin]
HT144 (melanoma) cells; 24 h incubation, 16 nM to 2 μM (CPT, PDCs), up to 32 μM (peptides)
  cytotoxic activity against HT144 at 24 h: absence of activity
HT144 (melanoma) cells; Homo sapiens, HT-144, 72 h, read-out: CC50 (half maximal cytotoxicity concentration) HT144
  CC50: 380 nM
[2]
  CC50 at 72 h: 570 nM
Human RBCs; concentration range 16 nM—2 μM
  RBC lysis: did not lyse RBCs
[1]
  % recovered (soluble fractions): 92% and > 90%
  Papp at 4 h, 4 μM: ≥ 2 ×10⁻⁶ cm/s
